# In patent US12195557B2, “Optimised compounds” (AXELIA ONCOLOGY PTY LTD, priority 2017, dated 2025):
# Where “and” joins values, the source holds several entries; their conditions need not be identical. Equal entries are not always repeated.
# Key:
# [1] = tested on: cytokines/chemokines (IL-6, KC, MCP-1, RANTES); test: Cytokine/chemokine levels in nasal turbinates, trachea, lungs and sera (cytometric bead array); assay type: in vivo, C57BL/6 mice
# [2] = in vitro; conditions: dog, dog plasma
# [3] = in vitro; conditions: cynomolgus monkey, hepatocytes
# [4] = in vitro; conditions: human, hepatocytes
# [5] = 3-dose regime, 0.5 and 0.05 nmole doses
structure (smiles),measurement,setting,value
"CCC(=O)OCC(CSCC(N)C(=O)NC(CO)C(=O)NCCOCC(=O)NCC(N)=O)OC(=O)CC (stereo not drawn) [INNA-006, Pam2Cys-Ser-PEG]","fold lower IL-6 in nasal turbinates, 3 doses compared to single dose",[1]; 0.5 nmoles,approximately 25 fold
same,"cytokine/chemokine levels in nasal turbinates, lungs and sera, 3 repeat doses compared to single dose",[1]; 0.5 or 0.05 nmoles,marked decrease in cytokine/chemokine levels
same,level of KC in lungs,[1]; 3-dose regime (both 0.5 and 0.05 nmole doses),~14 pg/mL and ~16.3 pg/mL
same,fold increase of KC secretion in lungs compared to INNA-003,[1]; [5],2 fold
same,fold increase of KC secretion in lungs compared to saline control,[1]; [5],3 fold
same,level of IL-6 in nasal turbinates,"[1]; 3 doses (0.5 nmoles), 24 hours after last dose",15 pg/mL
same,fold increase of KC in nasal turbinates versus saline,"[1]; mouse, in vivo",2 fold
same,level of KC in nasal turbinates,"[1]; mouse, in vivo",~83 pg/mL
same,inflammatory cytokines after pre-treatment and Udorn challenge,[1]; pre-treatment with up to three doses followed by challenge,no detectable change in any of the inflammatory cytokines measured
same,KC in the lungs compared to saline control,[1]; single dose,no significance
same,RANTES in nasal turbinates compared to INNA-003,[1]; single dose 0.5 nmoles,increased RANTES secretion
same,fold increase in IL-6 levels in nasal turbinates versus saline,[1]; single dose 0.5 nmoles,98 fold
same,level of IL-6 in nasal turbinates,"[1]; single dose (0.5 nmoles), 24 hours after dose",~395 pg/mL
same,"cytokine/chemokine profile in nasal turbinates compared to saline (IL-6, KC & MCP-1)","[1]; single or 3 repeat doses, 0.5 or 0.05 nmoles, dose-dependent",increase in proinflammatory cytokines and chemokines
same,half-life,[2],8.9 h
same,half-life at 0.5 μM,[3],> 6.25 h
same,hepatocyte CLint at 0.5 μM,[3],< 2 µL/min/1e6 cells
same,half-life at 0.5 μM,[4],> 6.25 h
same,hepatocyte CLint at 0.5 μM,[4],< 2 µL/min/1e6 cells
